Measurements taken from US20060009432A1, “Use of neurosteroids to treat neuropathic pain” (priority 2004, published 2006).

Key:
[1] = tested on: migraine; details: phase 2 clinical trial for migraine; cited from earlier work
[2] = tested on: rats receiving sham surgery; experiment: Thermal withdrawal in rats receiving sham surgery; format: in vivo, rat
Experimental: (§1) (A) L5/L6 spinal nerve ligation (SNL) was performed as described by Kim and Chung (Pain, 50,355-363(1992)). Animals (mice or rats) were anesthetized with halothane. An incision was made lateral to the lumbar spine. The right L5 and L6 spinal nerves were isolated and tightly ligated distal to the dorsal root ganglion. The incision was closed, and animals were allowed to recover for 10 days. Sham-operated animals were prepared in an identical fashion except that the spinal nerves were not ligated.
(B) The method of Hargreaves et al. (Pain, 32, 77-88 (1988)) was used to measure the thermal withdrawal latency in SNL rats. Animals were acclimated within Plexiglas enclosures on a clear glass plate maintained at 30° C. A radiant heat source (high-intensity projector lamp) was focused onto the plantar surface of the paw. When the paw was withdrawn, a motion detector halted the stimulus and a timer. A maximal cut-off of 40 sec for rats and 30 sec for mice was used to prevent tissue damage. Differences in responses between groups were tested by using the standard ANOVA statistical test followed by post hoc testing with Student's t test with Bonferroni's correction. Significance was defined as P<0.05.
The thermal withdrawal response was measured using the same protocol in rats receiving sham surgery. Table 4 provides the resulting measurement of thermal withdrawal in groups of five rats per dose level.

[3] = tested on: L5/L6 spinal nerve ligation (SNL) rats; experiment: Tactile allodynia (von Frey) in spinal nerve ligation model; format: in vivo, rat; details: SNL rats
Experimental: as §1
The protocol was repeated until three changes in behavior were determined. The maximal cut-off size values used were 15 g for rats and 3.5 g for mice. The 50% paw withdrawal threshold was determined as 10Xf+kδ/10,000, where Xf=the value of the last von Frey filament used, k=Dixon value for the positive/negative pattern, and δ=the logarithmic difference between stimuli.
Tactile allodynia response was measured 15, 30, 45, 60, 90 and 120 minutes after i.p. administration of ganaxolone (at 1 mg/kg, 3 mg/kg, 6 mg/kg or 10 mg/kg). Table 2 provides the resulting measurement of tactile allodynia response in groups of five rats per dosage level.

CC(=O)[C@H]1CC[C@H]2[C@@H]3CC[C@H]4C[C@](C)(O)CC[C@]4(C)[C@H]3CC[C@]12C [ganaxolone, 3α-hydroxy-3β-methyl-5α-pregnan-20-one]
Benefit on time to pain relief [1]: failed to show benefit | % Activity (thermal withdrawal) ([2]; 3 mg/kg, 15 min): 11.87 ± 7.34% | % Activity (thermal withdrawal) ([2]; 3 mg/kg, 30 min): 3.25 ± 2.71% | % Activity (thermal withdrawal) ([2]; 3 mg/kg, 45 min): 3.62 ± 3.62% | % Activity (thermal withdrawal) ([2]; 3 mg/kg, 60 min): 1.98 ± 1.98% | % Activity (thermal withdrawal) ([2]; 3 mg/kg, 90 min): 2.22 ± 1.61% | % Activity (thermal withdrawal) ([2]; 3 mg/kg, 120 min): 1.39 ± 1.39% | % Activity (thermal withdrawal) ([2]; 6 mg/kg, 15 min): 0.00 ± 0.00% | % Activity (thermal withdrawal) ([2]; 6 mg/kg, 30 min): 0.00 ± 0.00% | % Activity (thermal withdrawal) ([2]; 6 mg/kg, 45 min): 3.98 ± 3.98% | % Activity (thermal withdrawal) ([2]; 6 mg/kg, 60 min): 2.95 ± 2.95% | % Activity (thermal withdrawal) ([2]; 6 mg/kg, 90 min): 1.73 ± 1.73% | % Activity (thermal withdrawal) ([2]; 6 mg/kg, 120 min): 0.41 ± 0.41% | % Activity (thermal withdrawal) ([2]; 10 mg/kg, 15 min): 24.54 ± 19.33% | % Activity (thermal withdrawal) ([2]; 10 mg/kg, 30 min): 22.60 ± 11.64% | % Activity (thermal withdrawal) ([2]; 10 mg/kg, 45 min): 8.03 ± 4.26% | % Activity (thermal withdrawal) ([2]; 10 mg/kg, 60 min): 0.65 ± 0.65% | % Activity (thermal withdrawal) ([2]; 10 mg/kg, 90 min): 0.28 ± 0.28% | % Activity (thermal withdrawal) ([2]; 10 mg/kg, 120 min): 0.02 ± 0.02% | % Activity ± s.e.m. (tactile allodynia) ([3]; 1 mg/kg i.p., 15 min): 2.83 ± 2.83% | % Activity ± s.e.m. (tactile allodynia) ([3]; 1 mg/kg i.p., 30 min): 6.35 ± 3.38% | % Activity ± s.e.m. (tactile allodynia) ([3]; 1 mg/kg i.p., 45 min): 3.20 ± 2.21% | % Activity ± s.e.m. (tactile allodynia) ([3]; 1 mg/kg i.p., 60 min): 2.41 ± 1.53% | % Activity ± s.e.m. (tactile allodynia) ([3]; 1 mg/kg i.p., 90 min): 2.41 ± 1.53% | % Activity ± s.e.m. (tactile allodynia) ([3]; 1 mg/kg i.p., 120 min): 3.06 ± 3.06% | % Activity ± s.e.m. (tactile allodynia) ([3]; 3 mg/kg i.p., 15 min): 9.69 ± 4.56% | % Activity ± s.e.m. (tactile allodynia) ([3]; 3 mg/kg i.p., 30 min): 13.76 ± 6.54% | % Activity ± s.e.m. (tactile allodynia) ([3]; 3 mg/kg i.p., 45 min): 14.02 ± 5.14% | % Activity ± s.e.m. (tactile allodynia) ([3]; 3 mg/kg i.p., 60 min): 11.56 ± 3.01% | % Activity ± s.e.m. (tactile allodynia) ([3]; 3 mg/kg i.p., 90 min): 9.19 ± 2.67% | % Activity ± s.e.m. (tactile allodynia) ([3]; 3 mg/kg i.p., 120 min): 9.64 ± 1.63% | % Activity ± s.e.m. (tactile allodynia) ([3]; 6 mg/kg i.p., 15 min): 26.79 ± 9.34% | % Activity ± s.e.m. (tactile allodynia) ([3]; 6 mg/kg i.p., 30 min): 30.85 ± 6.77% | % Activity ± s.e.m. (tactile allodynia) ([3]; 6 mg/kg i.p., 45 min): 47.30 ± 14.99% | % Activity ± s.e.m. (tactile allodynia) ([3]; 6 mg/kg i.p., 60 min): 34.17 ± 15.78% | % Activity ± s.e.m. (tactile allodynia) ([3]; 6 mg/kg i.p., 90 min): 26.91 ± 15.45% | % Activity ± s.e.m. (tactile allodynia) ([3]; 6 mg/kg i.p., 120 min): 9.32 ± 2.85% | % Activity ± s.e.m. (tactile allodynia) ([3]; 10 mg/kg i.p., 15 min): 47.91 ± 21.86% | % Activity ± s.e.m. (tactile allodynia) ([3]; 10 mg/kg i.p., 30 min): 79.27 ± 18.71% | % Activity ± s.e.m. (tactile allodynia) ([3]; 10 mg/kg i.p., 45 min): 70.60 ± 18.42% | % Activity ± s.e.m. (tactile allodynia) ([3]; 10 mg/kg i.p., 60 min): 64.61 ± 18.63% | % Activity ± s.e.m. (tactile allodynia) ([3]; 10 mg/kg i.p., 90 min): 24.81 ± 9.53% | % Activity ± s.e.m. (tactile allodynia) ([3]; 10 mg/kg i.p., 120 min): 4.38 ± 1.81% | Sedation ([3]; 10 mg/kg i.p., tactile allodynia test): sedated four of the five rats for about one hour
